Data: US20240423933A1, “DRUGS FOR TREATING NEURODEVELOPMENTAL DISORDERS” (President and Fellows of Harvard College, priority 2021, published 2024)
“Also recorded” adds a separate entry of the source. Where a SMILES comes first, the peptide text is derived from it. [ ]: non-standard residue; d: D form. αMeP = C[C@@]1(C(=O)O)CCCN1

Legend:
[1] = test system: MeCP2 knockdown Xenopus laevis tadpoles; assay: Seizure Score in MeCP2 knockdown tadpoles; type: in vivo; details: MeCP2 knockdown tadpoles treated Day 1 to Day 6, relative to vehicle
Source text: Seizure Score data for wild-type and MeCP2 knockdown was collected for Xenopus laevis tadpoles treated with drug (trofinetide or vorinostat) or vehicle from Day 1 to Day 6, after which they were placed back in medium.

[2] = test system: MeCP2 knockdown Xenopus laevis tadpoles; assay: Tadpole viability in the MeCP2 knockdown model; type: in vivo; details: for animals survived until Day 10: MeCP2 knockdown tadpoles, no vehicle-treated animal survived beyond Day 6; for tadpole viability: MeCP2 knockdown model, FIGS. 6A-6B
Source text: 100% of MeCP2 knockdown animals treated with vorinostat survived until Day 10; over 50% of MeCP2 knockdown animals treated with trofinetide survived until Day 10. Conversely, none of the MeCP2 knockdown animals treated with vehicle survived beyond Day 6.

[3] = test system: MeCP2-knockdown (MeCP2-/Y) mice; assay: MeCP2 knockdown mouse study, treatment after onset of symptoms (oral vorinostat); type: in vivo; details: for survival after 3 weeks of treatment: MeCP2-knockdown animals; for colocalization of acetylated a-tubulin with neuronal staining in the colon: bIII- and acetylated alpha-tubulin staining; for colon vacuolization and neutrophil infiltrate (histology): colon sections of MeCP2-knockdown animals; for overall mobility scores (mobility, gait, hindlimb clasping) / diarrhea scores: relative to vehicle-treated MeCP2-knockdown animals; for overall mobility scores (mobility, gait, hindlimb clasping): FIG. 9B; for diarrhea scores: FIG. 9C
Protocol: Mice were treated with either trofinetide or vorinostat, and change in animal weight (g) and Cumulative Severity Score were assessed.
MeCP2-knockdown (MeCP2-/Y) mice were dosed approximately one week after the onset of symptoms with an oral formulation of vorinostat.
Additionally, the overall mobility scores (based on mobility, gait, and hindlimb clasping) and the diarrhea scores were improved for MeCP2-knockdown animals treated with vorinostat and trofinetide, relative to vehicle-treated MeCP2-knockdown animals (FIG. 9B and 9C, respectively). […] There was also an overall increase of hyperacetylated a-tubulin in bronchioles of MeCP2-Vy animals that vorinostat restored (FIG. 9E). Finally, vorinostat treatment rescued the disrupted a-tubulin acetylation observed in femoral muscle sections (FIG. 9F).
Initial histological analysis of the colon indicated a greater degree of vacuolization and heightened neutrophil infiltrate in MeCP2-knockdown animals, which vorinostat and trofinetide reversed. […] Vorinostat also normalized the ratio of acetylated alpha-tubulin to bIII-tubulin (FIG. 9G).

[4] = test system: MeCP2 knockdown Xenopus laevis tadpoles; assay: alpha-tubulin acetylation and cilia in tissues of MeCP2 knockdown tadpoles; type: in vivo
Protocol: Xenopus laevis tadpoles having an MeCP2 knockdown were generated using CRISPR-Cas9 technology. Xenopus embryos were fertilized and maintained at 14° C. until the 4-cell stage. Each cell was injected with ˜2 nL ribonucleoprotein (a mixture of sgRNAs targeting the MeCP2 gene and Cas9 enzyme). No adverse effects to development were observed, as all embryos developed to the swimming tadpole stages (Nieuwkoop-Faber stages 45-50) with no apparent loss of viability or morphological defect.
Specifically, tadpole tissues were assessed for alpha-tubulin acetylation and bidirectional shifts in acetylation patterns were observed depending on the tissue type.

[5] = test system: MeCP2 knockdown Xenopus laevis; assay: Tongue thickness and GI tract ib4+ staining in MeCP2 knockdown tadpoles; type: in vivo
Source text: Treatment with vorinostat in Xenopus laevis also had impacts on GI tract inflammation and nociceptive innervation. The role of MeCP2 knockdown in GI tract inflammation and nociceptive innervation by staining for isolectin B4-positive (ib4+) cells.

[6] = test system: MeCP2-knockdown (MeCP2−/Y) mice; assay: MeCP2 knockdown mouse study, daily i.p. treatment from p31; type: in vivo; details: vorinostat 50 mg/kg i.p. daily, relative to vehicle-treated MeCP2-knockdown mice
Protocol: Wild-type and MeCP2-knockdown (MeCP2^−/Y) mice (a Rett mouse model) were treated starting at day 31 post-partum (p31) via daily intraperitoneal (i.p.) administration of trofinetide (100 mg/kg) or vorinostat (50 mg/kg) until day 51 of age (FIG. 7A). Behavorial assays were performed at days 35-39 and days 49-53, before sacrificing the mice and harvesting organs at day 54.

[7] = test system: Naïve C57BL6 mice; assay: Elevated Plus Maze test; type: in vivo, mouse; details: FIGS. 11A-11B

C[C@@]1(C(=O)N[C@@H](CCC(=O)O)C(=O)O)CCCN1C(=O)CN [trofinetide, (2S)-2-[[(2S)-1-(2-aminoacetyl)-2-methylpyrrolidine-2-carbonyl]amino]pentanedioic acid] (H-Gly-[αMeP]-Glu-OH)
seizures (Seizure Score) [1]: reduced seizures | animals survived until Day 10 [2]: over 50% | survival after 3 weeks of treatment [3]: about 60% | colocalization of acetylated a-tubulin with neuronal staining in the colon [3]: normalized | colon vacuolization and neutrophil infiltrate (histology) [3]: reversed | overall mobility scores (mobility, gait, hindlimb clasping) [3]: improved | diarrhea scores [3]: improved

O=C(CCCCCCC(=O)Nc1ccccc1)NO [vorinostat, N′-hydroxy-N-phenyloctanediamide]
a-tubulin hyperacetylation in the GI tract ([4]; FIG. 2C): reversed that hyperacetylation | hyper-acetylation in olfactory multi-ciliated cells ([4]; microtubules and alpha-tubulin): reverses hyper-acetylation | effects related to microtubules and cilia length ([4]; nostril multiciliated cells, FIGS. 2A-2B): reversed those effects | tongue thickness ([5]; MeCP2 knockdown animals, FIG. 3A): restored normal tongue thickness; also recorded: restores normal tongue vertical thickness | ib4+ expression in the GI tract ([5]; MeCP2 knockdown tadpoles, isolectin B4 staining, FIG. 3B): reversed that ib4+ expression; also recorded: restores normal ib4+ expression | seizures (Seizure Score) [1]: reduced seizures | tadpole viability [2]: improves Xenopus laevis tadpole viability | tadpole viability ([2]; listed as Vorinostat): improve Xenopus laevis tadpole viability | animals survived until Day 10 [2]: 100% | neurological function (elevated plus maze and spatial novelty Y-maze performance) ([6]; FIG. 7D): improved neurological function | diarrhea score ([6]; FIG. 7E): improved diarrhea score | hyperacetylated a-tubulin in bronchioles ([3]; FIG. 9E): restored | a-tubulin acetylation in femoral muscle sections ([3]; FIG. 9F): rescued | survival after 3 weeks of treatment [3]: 100% | colocalization of acetylated a-tubulin with neuronal staining in the colon [3]: normalized | colon vacuolization and neutrophil infiltrate (histology) [3]: reversed | ratio of acetylated alpha-tubulin to bIII-tubulin ([3]; colon, FIG. 9G): normalized | breathing (score) ([3]; compared to trofinetide and vehicle treatments, FIG. 9D): significantly improved | performance in EPM and Y mazes ([3]; oral vorinostat 50 mg/kg): increased performance | weight gain ([3]; oral vorinostat 50 mg/kg): ameliorated weight gain | Cumulative Severity Score / symptom severity score ([3]; oral vorinostat 50 mg/kg, mice treated at 35 days of age after onset of severe symptoms, FIG. 9A): more effective than trofinetide; also recorded: prevented significant worsening | overall mobility scores (mobility, gait, hindlimb clasping) [3]: improved | diarrhea scores [3]: improved | behavior in anxiety, activity and novelty seeking [7]: restored behavior in anxiety, activity and novelty seeking; also recorded: restores naïve C57BL6 behavior
